pEC50, pIC50: −log10 of the molar value. Active and inactive are the calls of the source. The rule behind the calls is not given here.
Columns and labels:
[1] = biological target: T1, Retinol-binding protein 4 (Homo sapiens, UniProt P02753); test: Displacement of [3H]-retinol from human recombinant RBP4 by scintillation proximity assay
[2] = Metabolic stability in rat liver microsomes assessed as compound remaining after 30 mins; assay type: ADME; conditions: read-out: Stability
[3] = Clearance in rat at 0.5 mg/kg, iv; assay type: ADME, organism-based; parameters: dose 0.5 mg/kg, route intravenous; conditions: in vivo
[4] = AUC in rat at 0.5 mg/kg, iv; assay type: ADME, organism-based; parameters: dose 0.5 mg/kg, route intravenous; conditions: plasma
[5] = Mean residence time in rat at 0.5 mg/kg, iv; assay type: ADME, organism-based; parameters: dose 0.5 mg/kg, route intravenous; conditions: in vivo
[6] = Volume of distribution at steady state in rat at 0.5 mg/kg, iv; assay type: ADME, organism-based; parameters: dose 0.5 mg/kg, route intravenous; conditions: in vivo, read-out: Vdss
[7] = Cmax in mouse at 30 mg/kg, po; assay type: ADME, organism-based; parameters: dose 30 mg/kg, route oral; conditions: in vivo
[8] = AUC in mouse at 30 mg/kg, po; assay type: ADME, organism-based; parameters: dose 30 mg/kg, route oral; conditions: plasma
[9] = Mean residence time in mouse at 30 mg/kg, po; assay type: ADME, organism-based; parameters: dose 30 mg/kg, route oral; conditions: in vivo
Mus musculus [10] = species on record: Mus musculus; test: Reduction in RBP4 level in chow-fed B6D2F1 mouse at 5 uM after 4 hrs; assay type: functional, organism-based
Mus musculus [11] = species on record: Mus musculus; test: Reduction in retinol level in chow-fed B6D2F1 mouse at 5 uM after 4 hrs; assay type: functional, organism-based
[12] = biological target: T1, Retinol-binding protein 4; test: Inhibition of human recombinant RBP4-transthyretin interaction by FRET analysis
[13] = Cmax in mouse at 5 mg/kg, po; assay type: ADME, organism-based; parameters: dose 5 mg/kg, route oral; conditions: in vivo
[14] = AUC in mouse at 5 mg/kg, po; assay type: ADME, organism-based; parameters: dose 5 mg/kg, route oral; conditions: plasma
[15] = Mean residence time in mouse at 5 mg/kg, po; assay type: ADME, organism-based; parameters: dose 5 mg/kg, route oral; conditions: in vivo
Liver microsome [16] = test: Drug metabolism in rat liver microsomes assessed as oxidation in pyridinyl piperazine region; assay type: ADME
Liver microsome [17] = test: Drug metabolism in human liver microsomes assessed as oxidation in pyridinyl piperazine region; assay type: ADME
Mus musculus [18] = species on record: Mus musculus; test: Reduction in RBP4 level in chow-fed B6D2F1 mouse after 4 hrs; assay type: functional, organism-based
Mus musculus [19] = species on record: Mus musculus; test: Reduction in retinol level in chow-fed B6D2F1 mouse after 4 hrs; assay type: functional, organism-based
Liver microsome [20] = test: Drug metabolism in rat liver microsomes assessed as hydrolysis into primary urea; assay type: ADME
Liver microsome [21] = test: Drug metabolism in human liver microsomes assessed as hydrolysis primary urea; assay type: ADME

SMILES	pIC50 [1]	pIC50 [12]	also measured
COc1ccc(Cl)cc1NC(=O)C1CCN(c2ncccc2C(F)(F)F)CC1	5.96		
O=C(c1cn(Cc2ccccc2)cn1)N1CCN(c2ccccc2Cl)CC1	6.36		
CC1=C(/C=C/C(C)=C/C=C/C(C)=C/C(=O)Nc2ccc(O)cc2)C(C)(C)CCC1 [FENRETINIDE]			remaining at 0.5 h [2]: 67%; clearance [3]: 5 mL/min/kg; AUC [4]: 1660 ng·h/mL; MRT [5]: 10.5 h; Vd [6]: 3.2 L/kg; Cmax [7]: 65 ng/mL; AUC [8]: 1210 ng·h/mL; MRT [9]: 35 h; Activity (Mus musculus [10]): Active; Activity (Mus musculus [11]): Active
COc1ccc(Cl)cc1NC(=O)N1CCN(c2ccccc2Cl)CC1	6.05	5.89	
COC(=O)c1ccccc1NC(=O)N1CCC(c2ccccc2C(F)(F)F)CC1	7.04	7.74	
O=C(c1nccs1)N1CCC(c2ccccc2C(F)(F)F)CC1	7.29	8.52	
COc1ccc(Cl)cc1NC(=O)N1CCN(c2ncnc3sc4c(c23)CCC4)CC1	6.44	6.22	
COc1ccc(Cl)cc1NC(=O)N1CCN(c2ccccc2)CC1	4.52		
COc1ccc(Cl)cc1C(=O)N1CCN(c2ncnc3sc4c(c23)CCC4)C(C)C1 (stereo unspecified)	6.08	5.83	
COc1ccc(Cl)cc1NC(=O)N1CCN(CCc2ccccc2)CC1	< 4.52	< 4.52	
O=C(c1cccc(C(F)(F)F)c1)N1CCC(c2ccccc2C(F)(F)F)CC1	6.04	5.57	
FC(F)(F)c1cccc(CN2CCN(c3ncccc3C(F)(F)F)CC2)c1	< 4.52	< 5.00	
Cn1cncc1C(=O)N1CCC(c2ccccc2C(F)(F)F)CC1	6.08	6.26	
COc1ccc(Cl)cc1NC(=O)N1CCN(Cc2c(Cl)cccc2Cl)CC1	5.35	5.12	
O=C(c1cc(C(F)(F)F)[nH]n1)N1CCC(c2ccccc2C(F)(F)F)CC1	6.62	6.92	
O=C(c1cnccc1C(F)(F)F)N1CCC(c2ccccc2C(F)(F)F)CC1	6.89	7.12	
Cn1cnc(C(=O)N2CCC(c3ccccc3C(F)(F)F)CC2)c1	6.96	7.77	
FC(F)(F)c1cccc(CN2CCN(c3ncnc4sc5c(c34)CCC5)CC2)c1	6.22	7.62	

SMILES	pIC50 [1]	pIC50 [12]	also measured
COc1ccc(Cl)cc1NC(=O)N1CCN(c2ncccc2C(F)(F)F)CC1C (stereo unspecified)	6.35	6.46	
COc1ccc(Cl)cc1NC(=O)N1CCN(c2ccccc2C(F)(F)F)CC1	7.15	7.77	
O=C(O)c1ccccc1NC(=O)N1CCC(c2ccccc2C(F)(F)F)CC1			remaining at 0.5 h [2]: > 90%; clearance [3]: 0.0833 mL/min/kg; AUC [4]: 10700 ng·h/mL; MRT [5]: 9.7 h; Vd [6]: 0.045 L/kg; Cmax [13]: 2950 ng/mL; AUC [14]: 17200 ng·h/mL; MRT [15]: 5.4 h; Drug metabolism (Liver microsome [16]): metabolite_notdetected; Drug metabolism (Liver microsome [17]): metabolite_notdetected; Activity (Mus musculus [18]): Dose-dependent effect; pEC50 (Mus musculus [18]; B6D2F1, 4 h): 6.01; Activity (Mus musculus [19]): Dose-dependent effect; pEC50 (Mus musculus [19]; B6D2F1, 4 h): 5.96
COc1ccc(Cl)cc1NC(=O)N1CCN(c2ccccn2)CC1	< 4.52	< 4.52	
O=C(Cc1ccccc1C(F)(F)F)N1CCN(c2ncccc2C(F)(F)F)CC1	5.44	< 5.00	
O=C(O)c1ccccc1NC(=O)N1CCN(c2ncccc2C(F)(F)F)CC1			remaining at 0.5 h [2]: 51%; clearance [3]: 1.67 mL/min/kg; AUC [4]: 5080 ng·h/mL; MRT [5]: 2.6 h; Vd [6]: 0.26 L/kg; Cmax [13]: 1000 ng/mL; AUC [14]: 3650 ng·h/mL; MRT [15]: 3.2 h; Drug metabolism (Liver microsome [20]): metabolite_notdetected; Drug metabolism (Liver microsome [21]): metabolite_notdetected
COc1ccc(Cl)cc1NC(=O)N1CCN(c2ncccc2Cl)CC1	5.60		
COc1ccc(Cl)cc1NC(=O)N1CCC(c2ccccc2C(F)(F)F)CC1	6.80	7.64	
O=C(Cc1ccccc1C(F)(F)F)N1CCN(c2ncnc3sc4c(c23)CCC4)CC1	6.55	7.22	
COc1ccc(Cl)cc1NC(=O)N1CCN(c2ncccc2C(F)(F)F)CC1	6.64	6.89	remaining at 0.5 h [2]: 1%; Drug metabolism (Liver microsome [16]): metabolite_detected; Drug metabolism (Liver microsome [20]): metabolite_detected; Drug metabolism (Liver microsome [21]): metabolite_detected; Drug metabolism (Liver microsome [17]): metabolite_detected
COc1ccc(Cl)cc1NC(=O)N1CCCN(c2ncccc2C(F)(F)F)CC1	6.32	6.17	
COc1ccc(Cl)cc1NC(=O)N1CCN(c2ccccc2Cl)C(=O)C1	5.44		
COc1ccc(Cl)cc1NC(=O)N1CCN(C)CC1	< 4.52		
COc1ccc(Cl)cc1NC(=O)N1CCN(c2ncc(C(F)(F)F)cc2C(F)(F)F)CC1	5.66		
FC(F)(F)c1ccnc(N2CCC(c3ccccc3C(F)(F)F)CC2)n1	6.57	7.55	
O=C(c1ccco1)N1CCC(c2ccccc2C(F)(F)F)CC1	6.92	7.28	
COC(=O)c1cccc(C(=O)N2CCC(c3ccccc3C(F)(F)F)CC2)c1	6.08	6.22	

Reference: ChEMBL document CHEMBL3286122, “Structure-assisted discovery of the first non-retinoid ligands for Retinol-Binding Protein 4” (Bioorg Med Chem Lett, 2014)
